# Measurements reported in patent US20260027068A1, “METHODS OF ADM[…]-KETAMINE” (Perception Neuroscience, Inc., priority 2022, published 2026).
# Like-named read-outs stand apart in the source and are kept apart here.
# Experiments:
# [1] = test system: rodents; details: cited from earlier work
# [2] = test system: mouse model of depression; details: cited from earlier work
# [3] = test system: rats; assay: Precipitated withdrawal from morphine; assay type: in vivo
smiles,measurement,setting,value
"CN[C@@]1(c2ccccc2Cl)CCCCC1=O.Cl [R(−)-ketamine, (2R)-2-(2-chlorophenyl)-2-(methylamino)cyclohexan-1-one]",Conditioned place preference,[1]; 20 mg/kg,did not cause conditioned place preference
same,Conditioned place preference,[1]; 40 mg/kg,did cause conditioned place preference
same,Antidepressant effects on depression-like symptoms,[2],more potent antidepressant effects on the depression-like symptoms when compared to S(+)-ketamine
same,Effect on symptoms of precipitated withdrawal from morphine,[3],significantly ameliorated the symptoms of precipitated withdrawal from morphine
